The structures appear in SMILES notation.

The experiment has as its target EBI2 (Homo sapiens, UniProt P32249). As to the kind of experiment: Cell-based luminescent assay (EBI2 modulation). The note with it: cell-based luminescence; 7a,25-OHC final assay concentration 80 nM; 60 minutes incubation; read-out: IC50. Summed up:
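Cells plated overnight at 37° C, then exposed to compound at 4-5 uM final with 80 nM 7a,25-OHC agonist for 60 min at 37° C. Luminescence read after 60 min detection at 25° C in the dark; values normalized to neutral and stimulator controls and plate-pattern corrected.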

Chain of EBI2 (P32249 whole entry): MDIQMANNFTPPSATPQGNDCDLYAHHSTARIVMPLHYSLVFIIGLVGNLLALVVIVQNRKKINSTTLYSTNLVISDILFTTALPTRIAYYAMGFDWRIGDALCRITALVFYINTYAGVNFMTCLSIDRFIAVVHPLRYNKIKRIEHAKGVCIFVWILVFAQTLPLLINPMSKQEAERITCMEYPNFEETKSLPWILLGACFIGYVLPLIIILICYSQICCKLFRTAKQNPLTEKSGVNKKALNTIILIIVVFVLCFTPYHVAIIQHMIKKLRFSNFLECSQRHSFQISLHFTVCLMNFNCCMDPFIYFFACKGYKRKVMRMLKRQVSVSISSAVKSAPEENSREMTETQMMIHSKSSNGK

As for `O=C(C#Cc1cccc(Cl)c1)N1CCN(C(=O)c2ccc(F)cc2C(F)(F)F)CC1` [Compound C157, 3-(3-chlorophenyl)-1-(4-{[4-fluoro-2-(trifluoromethyl)phenyl]carbonyl}piperazinyl)prop-2-yn-1-one], the IC50 (commonly the midpoint of a concentration-inhibition curve) is less than 100 nM.

In the case of `Cc1ccc2[nH]c(C(=S)N3CCN(C(c4ccccc4)c4ccccc4)CC3)cc2c1` [Compound C158, [4-(diphenylmethyl)piperazinyl](5-methylindol-2-yl)methane-1-thione], the IC50 is less than 100 nM.

Regarding `O=C(C#Cc1ccc(F)cc1)N1CCN(C(c2ccccc2)c2ccccc2)CC1` [Compound C159, 1-[4-(diphenylmethyl)piperazinyl]-3-(4-fluorophenyl)prop-2-yn-1-one], the IC50 was less than 100 nM.

With `O=C(C#Cc1ccc(Br)cc1)N1CCN(C(=O)c2ccc(B(O)O)cc2)CC1` [Compound C160, 4-(4-(3-(4-bromophenyl)propioloyl)piperazine-1-carbonyl)phenylboronic acid], the IC50 is less than 100 nM.

As to `O=C(/C=C/c1ccccc1)N1CCN(Cc2ccc([N+](=O)[O-])cc2)CC1` [Compound C161, (2E)-1-{4-[(4-nitrophenyl)methyl]piperazinyl}-3-phenylprop-2-en-1-one], the IC50 is less than 100 nM.

For `Cc1ccc2[nH]c(C(=O)NC3CCN(C(c4ccccc4)c4ccccc4)CC3)cc2c1` [Compound C162, N-[1-(diphenylmethyl)(4-piperidyl)](5-methylindol-2-yl)carboxamide], the IC50 fell in the range of 500 to 5000 nM.

For `O=C(c1cc[nH]c1)N1CCN(C(=O)c2cc3cc(Cl)ccc3[nH]2)CC1` [Compound C163, 5-chloroindol-2-yl 4-(pyrrol-3-ylcarbonyl)piperazinyl ketone], the IC50 was 500 to 5000 nM.

For the molecule `O=C(c1ccc(Br)cc1)N1CCN(Cc2ccc(F)cc2C(F)(F)F)CC1` [Compound C164, 4-bromophenyl 4-{[4-fluoro-2-(trifluoromethyl)phenyl]methyl}piperazinyl ketone], the IC50 was 500 to 5000 nM.

For `O=C(c1ccc(Br)cc1)N1CCN(Cc2ccc(F)cc2)CC1` [Compound C165, 4-bromophenyl 4-[(4-fluorophenyl)methyl]piperazinyl ketone], the IC50 lay in the range of 500 to 5000 nM.

In the case of `O=C(C#Cc1ccc(F)cc1F)N1CCN(C(=O)c2ccc(C(F)(F)F)cc2)CC1` [Compound C166, 3-(2,4-difluorophenyl)-1-(4-{[4-(trifluoromethyl)phenyl]carbonyl}piperazinyl)prop-2-yn-1-one], the IC50 is 500 to 5000 nM.

With `O=C(C=Cc1ccc2c(c1)OCO2)N1CCN(Cc2ccc(C(F)(F)F)cc2)CC1` [Compound C167, 3-(2H-benzo[3,4-d]1,3-dioxolan-5-yl)-1-(4-{[4-(trifluoromethyl)phenyl]methyl}piperazinyl)prop-2-en-1-one], the IC50 was 500 to 5000 nM.

Consider `O=C(c1nc2ccccc2s1)N1CCN(C(c2ccccc2)c2ccccc2)CC1` [Compound C168, benzothiazol-2-yl 4-(diphenylmethyl)piperazinyl ketone], for which the IC50 lay in the range of 500 to 5000 nM.

In the case of `O=C(C#Cc1ccccc1C(F)(F)F)N1CCN(C(=O)c2ccc(C(F)(F)F)cc2)CC1` [Compound C169, 3-[2-(trifluoromethyl)phenyl]-1-(4-{[4-(trifluoromethyl)phenyl]carbonyl}piperazinyl)prop-2-yn-1-one], the IC50 was 500 to 5000 nM.

For `O=C(C#Cc1ccc(Cl)c(Cl)c1)N1CCN(Cc2ccc(C(F)(F)F)cc2)CC1` [Compound C171, 3-(3,4-dichlorophenyl)-1-(4-{[4-(trifluoromethyl)phenyl]methyl}piperazinyl)prop-2-yn-1-one], the IC50 lay in the range of 500 to 5000 nM.

With `Cn1c(C(=O)N2CCN(C(c3ccccc3)c3ccccc3)CC2)cc2ccsc21` [Compound C173, 4-(diphenylmethyl)piperazinyl 6-methylthiopheno[3,2-d]pyrrol-5-yl ketone], the IC50 fell in the range of 500 to 5000 nM.

For `O=C(/C=C/c1cc(Br)ccc1F)N1CCN(S(=O)(=O)c2ccc(Br)cc2)CC1` [Compound C174, (2E)-3-(5-bromo-2-fluorophenyl)-1-{4-[(4-bromophenyl)sulfonyl]piperazinyl}prop-2-en-1-one], the IC50 lay within 500 to 5000 nM.

Turning to `O=C(c1cnc2ccccc2c1)N1CCN(Cc2ccc(Cl)cc2)CC1` [Compound C175, 4-[(4-chlorophenyl)methyl]piperazinyl 3-quinolyl ketone], the IC50 is 500 to 5000 nM.

With `O=C(O)c1ccc(CN2CCN(C(=O)c3cc4cc(Cl)ccc4[nH]3)CC2)cc1` [Compound C177, 4-({4-[(5-chloroindol-2-yl)carbonyl]piperazinyl}methyl)benzoic acid], the IC50 lay within 500 to 5000 nM.

On to `O=C(c1cc2cccc([N+](=O)[O-])c2[nH]1)N1CCN(C(c2ccccc2)c2ccccc2)CC1` [Compound C178, 4-(diphenylmethyl)piperazinyl 7-nitroindol-2-yl ketone], for which the IC50 lay in the range of 500 to 5000 nM.

`O=C(C#Cc1ccc(F)cc1)N1CCN(Cc2ccc(F)cc2C(F)(F)F)CC1` [Compound C179, 3-(4-fluorophenyl)-1-(4-{[4-fluoro-2-(trifluoromethyl)phenyl]methyl}piperazinyl)prop-2-yn-1-one]: the IC50 was in the range of 500 to 5000 nM.

With `O=C(c1cc2ccc(Br)cc2[nH]1)N1CCN(Cc2ccc(Br)cc2)CC1` [Compound C180, 6-bromoindol-2-yl 4-[(4-bromophenyl)methyl]piperazinyl ketone], the IC50 is 500 to 5000 nM.

For `O=C(Nc1ccc(F)cc1)c1ccc(CN2CCN(C(=O)c3cc4cc(Cl)ccc4[nH]3)CC2)cc1` [Compound C181, [4-({4-[(5-chloroindol-2-yl)carbonyl]piperazinyl}methyl)phenyl]-N-(4-fluorophenyl)carboxamide], the IC50 was 500 to 5000 nM.

As for `O=C(c1cc2cc(Cl)ccc2[nH]1)N1CCN(c2ccccn2)CC1` [Compound C182, 5-chloroindol-2-yl 4-(2-pyridyl)piperazinyl ketone], the IC50 lay in the range of 500 to 5000 nM.

With `O=C(c1ccc2nc(C(F)(F)F)[nH]c2c1)N1CCN(C(=O)c2cc3cc(Cl)ccc3[nH]2)CC1` [Compound C183, 5-chloroindol-2-yl 4-{[2-(trifluoromethyl)benzimidazol-5-yl]carbonyl}piperazinyl ketone], the IC50 was in the range of 500 to 5000 nM.

For the molecule `O=C(NC1CCN(C(=O)c2cc3cc(Cl)ccc3[nH]2)CC1)c1ccc(Cl)cc1` [Compound C184, N-{1-[(5-chloroindol-2-yl)carbonyl](4-piperidyl)}(4-chlorophenyl)carboxamide], the IC50 was in the range of 500 to 5000 nM.

For `Cc1c(C(=O)N2CCN(C(c3ccccc3)c3ccccc3)CC2)sc2ccccc12` [Compound C185, 4-(diphenylmethyl)piperazinyl 3-methylbenzo[b]thiophen-2-yl ketone], the half-inhibitory concentration (IC50) lay within 500 to 5000 nM.

With `O=C(C=Cc1ccc2c(c1)OCO2)N1CCN(Cc2ccc(F)cc2C(F)(F)F)CC1` [Compound C186, 3-(2H-benzo[3,4-d]1,3-dioxolan-5-yl)-1-(4-{[4-fluoro-2-(trifluoromethyl)phenyl]methyl}piperazinyl)prop-2-en-1-one], the IC50 was in the range of 500 to 5000 nM.

Consider `O=C(Nc1ccc(F)cc1)c1cccc(CN2CCN(C(=O)c3cc4cc(Cl)ccc4[nH]3)CC2)c1` [Compound C187, [3-({4-[(5-chloroindol-2-yl)carbonyl]piperazinyl}methyl)phenyl]-N-(4-fluorophenyl)carboxamide], for which the IC50 fell in the range of 500 to 5000 nM.

Turning to `O=C(O)c1cccc(CN2CCN(C(=O)c3cc4cc(Cl)ccc4[nH]3)CC2)c1` [Compound C188, 3-({4-[(5-chloroindol-2-yl)carbonyl]piperazinyl}methyl)benzoic acid], the IC50 was 500 to 5000 nM.

With `O=C(c1cc2ccc(F)cc2[nH]1)N1CCN(C(=O)c2ccc(F)cc2C(F)(F)F)CC1` [Compound C189, 6-fluoroindol-2-yl 4-{[4-fluoro-2-(trifluoromethyl)phenyl]carbonyl}piperazinyl ketone], the IC50 lay within 500 to 5000 nM.

On to `CC(C)(C)c1ccc(S(=O)(=O)N2CCN(C(=O)/C=C/c3ccccc3F)CC2)cc1` [Compound C190, (2E)-1-(4-{[4-(tert-butyl)phenyl]sulfonyl}piperazinyl)-3-(2-fluorophenyl)prop-2-en-1-one], for which the IC50 fell in the range of 500 to 5000 nM.

Turning to `O=C(/C=C/c1ccccc1)N1CCN(Cc2ccccn2)CC1` [Compound C191, (2E)-3-phenyl-1-[4-(2-pyridylmethyl)piperazinyl]prop-2-en-1-one], the IC50 lay in the range of 500 to 5000 nM.

Turning to `O=C(/C=C/c1ccc(F)cc1)N1CCCN(C(c2ccccc2)c2ccccc2)CC1` [Compound C192, (2E)-1-[4-(diphenylmethyl)(1,4-diazaperhydroepinyl)]-3-(4-fluorophenyl)prop-2-en-1-one], the IC50 is 500 to 5000 nM.

With `O=C(c1cc2ncccc2[nH]1)N1CCN(C(c2ccccc2)c2ccccc2)CC1` [Compound C193, 4-(diphenylmethyl)piperazinyl pyrrolo[4,5-b]pyridin-2-yl ketone], the IC50 was in the range of 500 to 5000 nM.

With `O=C(c1ccc(P(=O)(O)O)cc1)N1CCN(C(=O)c2cc3cc(Cl)ccc3[nH]2)CC1` [Compound C194, 5-chloroindol-2-yl 4-[(4-phosphonophenyl)carbonyl]piperazinyl ketone], the IC50 lay within 500 to 5000 nM.

With `O=C(C#Cc1cc(F)cc(F)c1)N1CCN(Cc2ccc(C(F)(F)F)cc2)CC1` [Compound C195, 3-(3,5-difluorophenyl)-1-(4-{[4-(trifluoromethyl)phenyl]methyl}piperazinyl)prop-2-yn-1-one], the IC50 was in the range of 500 to 5000 nM.

For `Cc1ccccc1/C=C/C(=O)N1CCN(S(=O)(=O)c2ccccc2)CC1` [Compound C196, (2E)-3-(2-methylphenyl)-1-[4-(phenylsulfonyl)piperazinyl]prop-2-en-1-one], the IC50 fell in the range of 500 to 5000 nM.

With `O=C(C#Cc1cc(F)cc(F)c1)N1CCN(Cc2ccc(F)cc2)CC1` [Compound C197, 3-(3,5-difluorophenyl)-1-{4-[(4-fluorophenyl)methyl]piperazinyl}prop-2-yn-1-one], the IC50 lay within 500 to 5000 nM.

These data come from US9776979B2, “EBI2 modulators” (Sanford-Burnham Medical Research Institute, priority 2013, dated 2017).
